Assay results from the NIST ThermoML archive (doi:10.1016/j.fluid.2015.01.026).
Numbers after ± are expanded uncertainties.

settings: 298.15 K; 101.33 kPa; Liquid; Vibrating tube method

mass density [kg/m3] | Structure (SMILES)
1023.05 ± 0.25 | CC(=O)c1ccccc1 [acetophenone]
726.347 ± 0.24 | CCCCCCCCCC [decane]
741.523 ± 0.58 | CCCCCCCCCCCC [dodecane]
770.221 ± 0.24 | CCCCCCCCCCCCCCCC [hexadecane]
759.275 ± 0.24 | CCCCCCCCCCCCCC [tetradecane]
